# Measured values published in ChEMBL document CHEMBL3885861, “Open TG-GATES”.
# Organism: Rattus norvegicus
# Assay: Open TG-GATES - Regimen: Daily Repeat
# Format: toxicity, organism-based, Sprague-Dawley
# Parameters: regimen Daily Repeat, gender Male, age 6 weeks
# Settings: in vivo, po, route diet; for Hb / Ht / MCH / MCHC / MCV / Plat / RBC / Ret / WBC: tissue Blood; for KIDNEY_L / KIDNEY_R / KIDNEY_TOTAL: tissue Kidney; for LIVER: tissue Liver; for A/G / ALP / ALT / AST / BUN / CRE / Ca / Cl / DBIL / GLC / IP / K / LDH / Na / PL / RALB / TBIL / TC / TG / TP / gamma-GTP: tissue Plasma
# [1] = 72 h, dose 0 %, dose level Control, time 3 day
# [2] = 72 h, dose 9999 %, dose level High, time 3 day
# [3] = […], dose 0 %, dose level Control, time 7 day
# [4] = […], dose 0 %, dose level Control, time 14 day
# [5] = […], dose 0 %, dose level Control, time 28 day
# [6] = […], dose 9999 %, dose level High, time 7 day
# [7] = […], dose 9999 %, dose level High, time 14 day
# [8] = […], dose 9999 %, dose level High, time 28 day
smiles,measurement,setting,value
CC(C)CCC[C@@H](C)[C@H]1CC[C@H]2[C@@H]3CC=C4C[C@@H](O)CC[C@]4(C)[C@H]3CC[C@]12C.C[C@H](CCC(=O)[O-])[C@H]1CC[C@@H]2[C@]1(C)[C@@H](O)C[C@@H]1[C@@]3(C)CC[C@@H](O)C[C@H]3C[C@@H](O)[C@@]21C.[Na+] [cholesterol + sodium cholate],TERMINAL_BW,[1],232.1 g
same,TERMINAL_BW,[2],241.9 g
same,Hb,[1],12.9 g/dL
same,Ht,[1],35.6%
same,MCH,[1],23.1 pg
same,MCHC,[1],36.2%
same,MCV,[1],63.7 fL
same,Plat,[1],121.7 x10_4/uL
same,RBC,[1],558.2 x10_4/ul
same,Ret,[1],6.9%
same,WBC,[1],5.6 x10_2/uL
same,Hb,[2],12.6 g/dL
same,Ht,[2],35%
same,MCH,[2],22.5 pg
same,MCHC,[2],35.9%
same,MCV,[2],62.6 fL
same,Plat,[2],107.6 x10_4/uL
same,RBC,[2],559.2 x10_4/ul
same,Ret,[2],7%
same,WBC,[2],5.8 x10_2/uL
same,KIDNEY_L,[1],1 g
same,KIDNEY_R,[1],1 g
same,KIDNEY_TOTAL,[1],2 g
same,KIDNEY_R,[2],1.1 g
same,KIDNEY_TOTAL,[2],2.1 g
same,LIVER,[1],10.6 g
same,LIVER,[2],12.1 g
same,A/G,[1],1
same,ALP,[1],1907.2 IU/L
same,ALT,[1],41.8 IU/L
same,AST,[1],69 IU/L
same,BUN,[1],17.8 mg/dL
same,CRE,[1],0.2 mg/dL
same,Ca,[1],10.6 mg/dL
same,Cl,[1],102.1 meq/L
same,DBIL,[1],0 mg/dL
same,GLC,[1],176 mg/dL
same,IP,[1],7.2 mg/dL
same,K,[1],4.3 meq/L
same,LDH,[1],113.2 IU/L
same,Na,[1],139.7 meq/L
same,PL,[1],161.4 mg/dL
same,RALB,[1],2.9 g/dL
same,TBIL,[1],0 mg/dL
same,TC,[1],75 mg/dL
same,TG,[1],106.9 mg/dL
same,TP,[1],5.7 g/dL
same,gamma-GTP,[1],0.9 IU/L
same,ALP,[2],2118 IU/L
same,ALT,[2],42.4 IU/L
same,AST,[2],72.2 IU/L
same,BUN,[2],20.4 mg/dL
same,Ca,[2],10.8 mg/dL
same,Cl,[2],101.4 meq/L
same,GLC,[2],182.8 mg/dL
same,IP,[2],7.7 mg/dL
same,K,[2],4.5 meq/L
same,LDH,[2],149.4 IU/L
same,Na,[2],139.4 meq/L
same,PL,[2],157.4 mg/dL
same,TC,[2],187.2 mg/dL
same,TG,[2],136.6 mg/dL
same,TP,[2],5.9 g/dL
same,gamma-GTP,[2],0.8 IU/L
same,TERMINAL_BW,[3],274.4 g
same,TERMINAL_BW,[4],313.6 g
same,TERMINAL_BW,[5],422.8 g
same,TERMINAL_BW,[6],281.4 g
same,TERMINAL_BW,[7],337.1 g
same,TERMINAL_BW,[8],433.7 g
same,Hb,[3],13.2 g/dL
same,Ht,[3],36.5%
same,MCH,[3],22.4 pg
same,MCHC,[3],36.1%
same,MCV,[3],62.2 fL
same,Plat,[3],127.7 x10_4/uL
same,RBC,[3],587.8 x10_4/ul
same,Ret,[3],5.5%
same,WBC,[3],8.6 x10_2/uL
same,Hb,[4],12.6 g/dL
same,Ht,[4],38.3%
same,MCH,[4],19.3 pg
same,MCHC,[4],32.8%
same,MCV,[4],58.7 fL
same,Plat,[4],111.1 x10_4/uL
same,RBC,[4],654 x10_4/ul
same,Ret,[4],4.2%
same,WBC,[4],44.3 x10_2/uL
same,Hb,[5],13.3 g/dL
same,Ht,[5],39.2%
same,MCH,[5],18.8 pg
same,MCHC,[5],33.9%
same,MCV,[5],55.4 fL
same,Plat,[5],101.1 x10_4/uL
same,RBC,[5],707.2 x10_4/ul
same,Ret,[5],3%
same,WBC,[5],55.7 x10_2/uL
same,Hb,[6],12.5 g/dL
same,Ht,[6],34.9%
same,MCH,[6],21.6 pg
same,MCHC,[6],35.7%
same,MCV,[6],60.7 fL
same,Plat,[6],142.4 x10_4/uL
same,RBC,[6],574.8 x10_4/ul
same,Ret,[6],5.6%
same,WBC,[6],7.3 x10_2/uL
same,Hb,[7],11.8 g/dL
same,Ht,[7],36%
same,MCH,[7],19.1 pg
same,MCHC,[7],32.7%
same,MCV,[7],58.3 fL
same,Plat,[7],148.5 x10_4/uL
same,RBC,[7],617.4 x10_4/ul
same,Ret,[7],4.7%
same,WBC,[7],30.6 x10_2/uL
same,Hb,[8],13.1 g/dL
same,Ht,[8],39%
same,MCHC,[8],33.6%
same,MCV,[8],55.9 fL
same,Plat,[8],116.2 x10_4/uL
same,RBC,[8],698.8 x10_4/ul
same,Ret,[8],3.2%
same,WBC,[8],50.2 x10_2/uL
same,KIDNEY_L,[3],1.1 g
same,KIDNEY_R,[3],1.1 g
same,KIDNEY_TOTAL,[3],2.2 g
same,KIDNEY_L,[4],1.2 g
same,KIDNEY_R,[4],1.2 g
same,KIDNEY_TOTAL,[4],2.3 g
same,KIDNEY_L,[5],1.4 g
same,KIDNEY_R,[5],1.4 g
same,KIDNEY_TOTAL,[5],2.8 g
same,KIDNEY_L,[6],1.2 g
same,KIDNEY_R,[6],1.2 g
same,KIDNEY_TOTAL,[6],2.4 g
same,KIDNEY_L,[7],1.3 g
same,KIDNEY_R,[7],1.4 g
same,KIDNEY_TOTAL,[7],2.6 g
same,KIDNEY_L,[8],1.6 g
same,KIDNEY_R,[8],1.6 g
same,KIDNEY_TOTAL,[8],3.2 g
same,LIVER,[3],12.4 g
same,LIVER,[4],13.6 g
same,LIVER,[5],17.9 g
same,LIVER,[6],16.3 g
same,LIVER,[7],18.6 g
same,LIVER,[8],24.7 g
same,A/G,[3],1
same,ALP,[3],1589.8 IU/L
same,ALT,[3],34 IU/L
same,AST,[3],67.4 IU/L
same,BUN,[3],19.6 mg/dL
same,CRE,[3],0.2 mg/dL
same,Ca,[3],10.4 mg/dL
same,Cl,[3],105.2 meq/L
same,DBIL,[3],0 mg/dL
same,GLC,[3],193.4 mg/dL
same,IP,[3],7.3 mg/dL
same,K,[3],4.4 meq/L
same,LDH,[3],160.6 IU/L
same,Na,[3],141.5 meq/L
same,PL,[3],154.8 mg/dL
same,RALB,[3],2.8 g/dL
same,TBIL,[3],0 mg/dL
same,TC,[3],75.4 mg/dL
same,TG,[3],124.4 mg/dL
same,TP,[3],5.7 g/dL
same,gamma-GTP,[3],0.9 IU/L
same,A/G,[4],1
same,ALP,[4],1612.2 IU/L
same,ALT,[4],38.4 IU/L
same,AST,[4],79.8 IU/L
same,BUN,[4],18.5 mg/dL
same,CRE,[4],0.2 mg/dL
same,Ca,[4],10.5 mg/dL
same,Cl,[4],103.4 meq/L
same,DBIL,[4],0.002 mg/dL
same,GLC,[4],203.6 mg/dL
same,IP,[4],6.5 mg/dL
same,K,[4],3.7 meq/L
same,LDH,[4],284.8 IU/L
same,Na,[4],141.8 meq/L
same,PL,[4],139.4 mg/dL
same,RALB,[4],2.9 g/dL
same,TBIL,[4],0 mg/dL
same,TC,[4],62.4 mg/dL
same,TG,[4],145.6 mg/dL
same,TP,[4],5.8 g/dL
same,gamma-GTP,[4],1 IU/L
same,A/G,[5],0.8
same,ALP,[5],1365 IU/L
same,ALT,[5],31.4 IU/L
same,AST,[5],56.2 IU/L
same,BUN,[5],17.7 mg/dL
same,CRE,[5],0.2 mg/dL
same,Ca,[5],10.3 mg/dL
same,Cl,[5],103.3 meq/L
same,DBIL,[5],0.006 mg/dL
same,GLC,[5],210.8 mg/dL
same,IP,[5],6.4 mg/dL
same,K,[5],4.2 meq/L
same,LDH,[5],103.6 IU/L
same,Na,[5],139 meq/L
same,PL,[5],143.8 mg/dL
same,RALB,[5],2.8 g/dL
same,TBIL,[5],0 mg/dL
same,TC,[5],68.2 mg/dL
same,TG,[5],180.9 mg/dL
same,TP,[5],6 g/dL
same,gamma-GTP,[5],0.9 IU/L
same,A/G,[6],0.9
same,ALP,[6],1845.8 IU/L
same,ALT,[6],43.4 IU/L
same,AST,[6],79.8 IU/L
same,BUN,[6],18.6 mg/dL
same,Ca,[6],10.7 mg/dL
same,Cl,[6],103.2 meq/L
same,GLC,[6],190 mg/dL
same,IP,[6],7.6 mg/dL
same,K,[6],4.5 meq/L
same,LDH,[6],179.4 IU/L
same,Na,[6],140.8 meq/L
same,PL,[6],174 mg/dL
same,RALB,[6],3 g/dL
same,TC,[6],181 mg/dL
same,TG,[6],141.6 mg/dL
same,TP,[6],6.2 g/dL
same,gamma-GTP,[6],1.1 IU/L
same,A/G,[7],0.8
same,ALP,[7],1718.2 IU/L
same,ALT,[7],35.4 IU/L
same,AST,[7],68 IU/L
same,BUN,[7],18.4 mg/dL
same,Ca,[7],10.8 mg/dL
same,Cl,[7],101.7 meq/L
same,DBIL,[7],0 mg/dL
same,GLC,[7],200.2 mg/dL
same,IP,[7],6.7 mg/dL
same,K,[7],4.2 meq/L
same,LDH,[7],181.2 IU/L
same,Na,[7],141.2 meq/L
same,PL,[7],142.8 mg/dL
same,TC,[7],158.2 mg/dL
same,TG,[7],121.9 mg/dL
same,TP,[7],6.5 g/dL
same,gamma-GTP,[7],1.1 IU/L
same,ALP,[8],1155 IU/L
same,ALT,[8],34.6 IU/L
same,AST,[8],62.8 IU/L
same,BUN,[8],16.6 mg/dL
same,Ca,[8],10.7 mg/dL
same,Cl,[8],100.9 meq/L
same,DBIL,[8],0 mg/dL
same,GLC,[8],194 mg/dL
same,IP,[8],6.5 mg/dL
same,K,[8],3.9 meq/L
same,LDH,[8],135 IU/L
same,Na,[8],140.2 meq/L
same,PL,[8],146.2 mg/dL
same,RALB,[8],3 g/dL
same,TC,[8],147.6 mg/dL
same,TG,[8],120.2 mg/dL
same,TP,[8],6.8 g/dL
